{"source": "ChEMBL document CHEMBL1201862", "about": "“PubChem BioAssay data set” (2004)", "test_in_all_cases": "inhibition of tumour cell growth, NCI panel, 48 h", "key": {"IGROV-1": {"test_system": "IGROV-1"}, "HOP-62": {"test_system": "HOP-62"}, "786-0": {"test_system": "786-0"}, "KM12": {"test_system": "KM12"}, "ACHN": {"test_system": "ACHN"}, "K562": {"test_system": "K562"}, "MDA-MB-231": {"test_system": "MDA-MB-231"}, "MOLT-4": {"test_system": "MOLT-4"}, "COLO 205": {"test_system": "COLO 205"}, "HL-60": {"test_system": "HL-60"}, "CAKI-1": {"test_system": "CAKI-1"}, "HCT-15": {"test_system": "HCT-15"}, "MDA-N": {"test_system": "MDA-N"}, "SF-268": {"test_system": "SF-268"}, "NCI-H460": {"test_system": "NCI-H460"}, "SW-620": {"test_system": "SW-620"}, "SK-OV-3": {"test_system": "SK-OV-3"}, "A549": {"test_system": "A549"}, "UO-31": {"test_system": "UO-31"}}, "note": "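Where inhibition never reached the appropriate level, the endpoint shown equals the highest concentration tested. Otherwise, values were interpolated linearly from a five-concentration, 48-hour dose response in 96-well plates. Abbreviation: GI50, concentration required for 50% inhibition of growth.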 Calls of active or inactive are those of the source. Rule as the data show it: active = GI50 up to about 1.1 µM and inactive = higher."}
{"compound": "CCOP(=O)(Cc1nc(C#N)c(N)o1)OCC", "values": [{"measurement": "GI50", "setting": "IGROV-1", "value": "> 100 µM (inactive)"}, {"measurement": "GI50", "setting": "HOP-62", "value": "> 100 µM (inactive)"}, {"measurement": "GI50", "setting": "786-0", "value": "> 100 µM (inactive)"}, {"measurement": "GI50", "setting": "KM12", "value": "> 100 µM (inactive)"}, {"measurement": "GI50", "setting": "ACHN", "value": "> 100 µM (inactive)"}, {"measurement": "GI50", "setting": "K562", "value": "> 100 µM (inactive)"}, {"measurement": "GI50", "setting": "MDA-MB-231", "value": "> 100 µM (inactive)"}, {"measurement": "GI50", "setting": "MOLT-4", "value": "> 100 µM (inactive)"}, {"measurement": "GI50", "setting": "COLO 205", "value": "> 100 µM (inactive)"}, {"measurement": "GI50", "setting": "HL-60", "value": "> 100 µM (inactive)"}, {"measurement": "GI50", "setting": "CAKI-1", "value": "> 100 µM (inactive)"}, {"measurement": "GI50", "setting": "HCT-15", "value": "> 100", "unit": "µM"}, {"measurement": "GI50", "setting": "MDA-N", "value": "> 100 µM (inactive)"}, {"measurement": "GI50", "setting": "SF-268", "value": "> 100 µM (inactive)"}, {"measurement": "GI50", "setting": "NCI-H460", "value": "> 100 µM (inactive)"}, {"measurement": "GI50", "setting": "SW-620", "value": "> 100 µM (inactive)"}, {"measurement": "GI50", "setting": "SK-OV-3", "value": "> 100 µM (inactive)"}]}
{"compound": "O=C1C2=Cc3ccccc3CCN2c2ccc([N+](=O)[O-])cc21", "values": [{"measurement": "GI50", "setting": "IGROV-1", "value": "> 100 µM (inactive)"}, {"measurement": "GI50", "setting": "HOP-62", "value": "> 100 µM (inactive)"}, {"measurement": "GI50", "setting": "A549", "value": "31.3 µM (inactive)"}, {"measurement": "GI50", "setting": "786-0", "value": "> 100 µM (inactive)"}, {"measurement": "GI50", "setting": "KM12", "value": "> 100 µM (inactive)"}, {"measurement": "GI50", "setting": "UO-31", "value": "24.2 µM (inactive)"}, {"measurement": "GI50", "setting": "ACHN", "value": "43.2 µM (inactive)"}, {"measurement": "GI50", "setting": "K562", "value": "> 100 µM (inactive)"}, {"measurement": "GI50", "setting": "MDA-MB-231", "value": "> 100 µM (inactive)"}, {"measurement": "GI50", "setting": "MOLT-4", "value": "45.7 µM (inactive)"}, {"measurement": "GI50", "setting": "COLO 205", "value": "43.2 µM (inactive)"}, {"measurement": "GI50", "setting": "HL-60", "value": "66.5 µM (inactive)"}, {"measurement": "GI50", "setting": "CAKI-1", "value": "69.3 µM (inactive)"}, {"measurement": "GI50", "setting": "HCT-15", "value": 58.3, "unit": "µM"}, {"measurement": "GI50", "setting": "MDA-N", "value": "> 100 µM (inactive)"}, {"measurement": "GI50", "setting": "SF-268", "value": "91.4 µM (inactive)"}, {"measurement": "GI50", "setting": "NCI-H460", "value": "30.7 µM (inactive)"}, {"measurement": "GI50", "setting": "SW-620", "value": "> 100 µM (inactive)"}]}
{"compound": "O=C1CC2(C[C@@H]3CCCCCCCCC[C@@H](C3)C2)N1", "note": "(some centres undefined)", "values": [{"measurement": "GI50", "setting": "IGROV-1", "value": "12.9 µM (inactive)"}, {"measurement": "GI50", "setting": "HOP-62", "value": "17.1 µM (inactive)"}, {"measurement": "GI50", "setting": "A549", "value": "21.8 µM (inactive)"}, {"measurement": "GI50", "setting": "786-0", "value": "16.1 µM (inactive)"}, {"measurement": "GI50", "setting": "KM12", "value": "17.8 µM (inactive)"}, {"measurement": "GI50", "setting": "UO-31", "value": "14.4 µM (inactive)"}, {"measurement": "GI50", "setting": "ACHN", "value": "15.5 µM (inactive)"}, {"measurement": "GI50", "setting": "K562", "value": "20.8 µM (inactive)"}, {"measurement": "GI50", "setting": "MOLT-4", "value": "12.4 µM (inactive)"}, {"measurement": "GI50", "setting": "COLO 205", "value": "16.7 µM (inactive)"}, {"measurement": "GI50", "setting": "HL-60", "value": "15.1 µM (inactive)"}, {"measurement": "GI50", "setting": "CAKI-1", "value": "12.6 µM (inactive)"}, {"measurement": "GI50", "setting": "HCT-15", "value": 17.7, "unit": "µM"}, {"measurement": "GI50", "setting": "SF-268", "value": "20.4 µM (inactive)"}, {"measurement": "GI50", "setting": "NCI-H460", "value": "16.6 µM (inactive)"}, {"measurement": "GI50", "setting": "SW-620", "value": "18.7 µM (inactive)"}, {"measurement": "GI50", "setting": "SK-OV-3", "value": "15.1 µM (inactive)"}]}
{"compound": "CC1=[N+]([O-])C2(CCCC2)N(O)C1(C)C", "values": [{"measurement": "GI50", "setting": "IGROV-1", "value": "> 100 µM (inactive)"}, {"measurement": "GI50", "setting": "HOP-62", "value": "> 100 µM (inactive)"}, {"measurement": "GI50", "setting": "A549", "value": "> 100 µM (inactive)"}, {"measurement": "GI50", "setting": "786-0", "value": "> 100 µM (inactive)"}, {"measurement": "GI50", "setting": "KM12", "value": "> 100 µM (inactive)"}, {"measurement": "GI50", "setting": "UO-31", "value": "> 100 µM (inactive)"}, {"measurement": "GI50", "setting": "ACHN", "value": "> 100 µM (inactive)"}, {"measurement": "GI50", "setting": "K562", "value": "> 100 µM (inactive)"}, {"measurement": "GI50", "setting": "MDA-MB-231", "value": "> 100 µM (inactive)"}, {"measurement": "GI50", "setting": "COLO 205", "value": "> 100 µM (inactive)"}, {"measurement": "GI50", "setting": "HL-60", "value": "> 100 µM (inactive)"}, {"measurement": "GI50", "setting": "CAKI-1", "value": "> 100 µM (inactive)"}, {"measurement": "GI50", "setting": "HCT-15", "value": "> 100", "unit": "µM"}, {"measurement": "GI50", "setting": "MDA-N", "value": "> 100 µM (inactive)"}, {"measurement": "GI50", "setting": "SF-268", "value": "> 100 µM (inactive)"}, {"measurement": "GI50", "setting": "NCI-H460", "value": "> 100 µM (inactive)"}, {"measurement": "GI50", "setting": "SW-620", "value": "> 100 µM (inactive)"}, {"measurement": "GI50", "setting": "SK-OV-3", "value": "> 100 µM (inactive)"}]}
{"compound": "C[C@@H]([C@H]1CC[C@@]2(C)[C@@H]3CC[C@@H]4C(=CC3=CC[C@]12C)CC[C@H](N(C)C)C4(C)C)N(C)C", "note": "[BUXAMINE A]", "values": [{"measurement": "GI50", "setting": "IGROV-1", "value": "> 100 µM (inactive)"}, {"measurement": "GI50", "setting": "HOP-62", "value": "> 100 µM (inactive)"}, {"measurement": "GI50", "setting": "786-0", "value": "> 100 µM (inactive)"}, {"measurement": "GI50", "setting": "KM12", "value": "> 100 µM (inactive)"}, {"measurement": "GI50", "setting": "ACHN", "value": "> 100 µM (inactive)"}, {"measurement": "GI50", "setting": "K562", "value": "> 100 µM (inactive)"}, {"measurement": "GI50", "setting": "MDA-MB-231", "value": "> 100 µM (inactive)"}, {"measurement": "GI50", "setting": "MOLT-4", "value": "> 100 µM (inactive)"}, {"measurement": "GI50", "setting": "COLO 205", "value": "> 100 µM (inactive)"}, {"measurement": "GI50", "setting": "HL-60", "value": "> 100 µM (inactive)"}, {"measurement": "GI50", "setting": "CAKI-1", "value": "> 100 µM (inactive)"}, {"measurement": "GI50", "setting": "HCT-15", "value": "> 100", "unit": "µM"}, {"measurement": "GI50", "setting": "MDA-N", "value": "> 100 µM (inactive)"}, {"measurement": "GI50", "setting": "SF-268", "value": "> 100 µM (inactive)"}, {"measurement": "GI50", "setting": "NCI-H460", "value": "> 100 µM (inactive)"}, {"measurement": "GI50", "setting": "SW-620", "value": "> 100 µM (inactive)"}, {"measurement": "GI50", "setting": "SK-OV-3", "value": "> 100 µM (inactive)"}]}
{"compound": "Oc1cnc2c(O)cccc2c1", "note": "[JINEOL]", "values": [{"measurement": "GI50", "setting": "IGROV-1", "value": "20.3 µM (inactive)"}, {"measurement": "GI50", "setting": "HOP-62", "value": "26.7 µM (inactive)"}, {"measurement": "GI50", "setting": "A549", "value": "40.7 µM (inactive)"}, {"measurement": "GI50", "setting": "786-0", "value": "35.5 µM (inactive)"}, {"measurement": "GI50", "setting": "KM12", "value": "12.8 µM (inactive)"}, {"measurement": "GI50", "setting": "UO-31", "value": "30.8 µM (inactive)"}, {"measurement": "GI50", "setting": "ACHN", "value": "27.5 µM (inactive)"}, {"measurement": "GI50", "setting": "K562", "value": "51.3 µM (inactive)"}, {"measurement": "GI50", "setting": "MDA-MB-231", "value": "52 µM (inactive)"}, {"measurement": "GI50", "setting": "MOLT-4", "value": "41.7 µM (inactive)"}, {"measurement": "GI50", "setting": "HL-60", "value": "31.5 µM (inactive)"}, {"measurement": "GI50", "setting": "HCT-15", "value": 33.5, "unit": "µM"}, {"measurement": "GI50", "setting": "MDA-N", "value": "57.1 µM (inactive)"}, {"measurement": "GI50", "setting": "SF-268", "value": "33.2 µM (inactive)"}, {"measurement": "GI50", "setting": "NCI-H460", "value": "31.9 µM (inactive)"}, {"measurement": "GI50", "setting": "SW-620", "value": "45.5 µM (inactive)"}, {"measurement": "GI50", "setting": "SK-OV-3", "value": "32.6 µM (inactive)"}]}
